This is an account of results in US20210038589A1, “USES, COMPOSITIONS AND METHODS” (priority 2018, published 2021).

This test deals with pyramidal cell action potentials in hippocampal area CA3. In words: Concomitant LFP and single unit recordings: AP firing and spike-phase coupling after Aβ. Format: cell-based, mouse. The note with it: inhibitor applied after the application of Aβ. The procedure: Having studied the synaptic effects of two T-type Ca^2+ channel inhibitors, we then proceeded to examine their ability to modulate the synchronization of hippocampal neuronal activity. We performed concomitant recordings of field potentials and single unit recordings to analyze the synchronization of action potentials with the phase of the gamma oscillations (27). […] To determine the spike phase of PC during a gamma oscillation, spike-phase coupling was calculated. […] This is observed as a slight shift to the right in the AP-phase distribution (7A,D). The desynchronization of PC activity is also evidenced by the reduction of the summation vector length (Pmzd: control: 0.3764±0.048, Aβ: 0.226±0.05, n=7, p=0.0078, FIG. 7B; Penfl: control: 0.3976±0.054, Aβ: 0.2661±0.05566, n=8, p=0.0078, FIG. 7E), which is represented by the change in the length of the arrow in FIGS. 7A and D.
Patch-clamp (whole-cell) recordings were performed from visually identified CA3 PC using The SliceScope (Scientifica, UK). Action Potentials (APs) were recorded from pyramidal cells in area CA3 as single units (submerged chamber) using standard ACSF-containing patch electrodes. For EPSC recordings (Vh=−70 mV) a potassium-based intracellular solution was used (in mM): 122.5 K-gluconate, 17.5 KCl, 4 ATPNa, 0.4 GTPNa, 10 HEPES, 0.2 EGTA, 2 MgCl, set to pH 7.2-7.3 with KOH, osmolarity 270-280 mOsm. For IPSC recordings (Vh=0 mV) a cesium-based intracellular solution was used (in mM): 140 CsMeSO4, 10 HEPES, 0.2 EGTA, 4 MGCl, 2 ATPNa, 0.2 GTPNa, 5 QX-314, set to pH 7.2-7.4 with CsOH, osmolarity 270-280 mOsm.
Spike phase-coupling analysis was performed on concomitant LFP recordings and single unit recordings using MATLAB custom-written routines in order to relate the PC spiking activity to ongoing gamma oscillations (48). To do this LFP recordings were pre-processed using a band pass filter set to 20-60 Hz (highpass: RC-single pole, lowpass: RC-single pole) using Clampfit 10.7. AP were detected using an amplitude threshold and the instantaneous phase of gamma oscillation was calculated using a Hilbert transform in order to determine the phase-angle at which each action potential occurred during ongoing oscillations. Phase-angles and gamma oscillations-phases were represented in polar plots and expressed in radians with the peak of the oscillation cycle corresponding to 0π and the valley corresponding to ±π in the polar plots. In order to search for the synchronization level of AP firing, AP phase-angles frequency-distribution were normalized, a Gaussian function was fitted and the half-width at half-maximum was then calculated as a measure of the synchronization level: the more AP are fired on the same phase-angle the more synchronized the neuronal activity is. The preferred phase-angle was calculated by averaging the AP phase-angles distribution of all the experiments and is represented by an arrow in the polar-plots. To test whether neurons fired in a phase-related manner all concomitant recordings were tested for circular uniformity using Rayleigh's test. Only recording with p values below 0.05 were considered for the analysis.

Each structure is given as a SMILES string.

Regarding `OC1(c2ccc(Cl)c(C(F)(F)F)c2)CCN(CCCC(c2ccc(F)cc2)c2ccc(F)cc2)CC1` [Penfluridol], the “AP count (AP firing frequency)” value is reported as 1.79±0.43 Hz, the preferred phase angle is on record as 4.09±0.2 radians and the summation vector length turned out to be 0.355±0.05.
The matching figures for `O=c1[nH]c2ccccc2n1C1CCN(CCCC(c2ccc(F)cc2)c2ccc(F)cc2)CC1` [Pimozide]: 2.23±0.51 Hz, 4.180±0.15 radians and 0.335±0.072.
